Assay results: patent US20190381015A1, “PHARMACEUTICAL USE OF BERBERINE” (priority 2016, published 2019)
“Also recorded” adds a separate entry of the source.

Legend:
[1] = test system: pulmonary arterial smooth muscle cells; test: Noradrenaline-stimulated pulmonary arterial smooth muscle cells: Grk2 and LKB1; type: cell-based; conditions: pulmonary arterial smooth muscle cells of normal animals, berberine added for 30 minutes (CTL group), FIG. 1
Procedure: FIG. 1 is a schematic diagram of berberine inhibiting noradrenaline. The pulmonary arterial smooth muscle cells are stimulated with noradrenaline (NE) for 2 hours and then randomly divided into a berberine group (Ctl group, berberine for 4 hours) and a control group. In the control group, cells are collected at various time points (30 minutes-4 hours) after the grouping, and the protein phosphorylation activities of liver kinase B1 (LKB1) and G-protein coupled receptor kinase 2 (Grk2) are measured. GAPDH is an internal reference protein.

[2] = test system: pulmonary hypertension induced by dehydrogenated monocrotaline; test: Dehydrogenated monocrotaline-induced pulmonary hypertension in beagles; type: in vivo
Excerpt: FIG. 2 is a mirror view for a contrast experiment of berberine inhibiting pulmonary artery remodeling. Animals with pulmonary hypertension are randomly divided into a normal control group, a berberine group, and a blank group without treatment. Histochemical staining (HE) and vascular endothelial vWF staining, smooth muscle cell staining (SMA).
20 beagles were selected, were subjected to pulmonary hemodynamics measurement, and then were randomly divided into a berberine group ([…]) and a control group (intragastric gavage of a berberine coating, without berberine, 14 days in total). […] Results: the mean pulmonary arterial pressure of only one animal in the berberine group reaches 28 mmHg, and the mean pulmonary arterial pressures of the other 9 animals are all <25 mmHg (19±3.0 mmHg). In contrast, the mean pulmonary arterial pressures of 8 animals in the control group are all >26 mmHg (28.4±2.1 mmHg), one animal for 24.6 mmHg, and the other one for 24.8 mmHg.

[3] = test system: idiopathic pulmonary hypertension; test: Clinical experiment in patients with idiopathic pulmonary hypertension; type: in vivo, human; conditions: berberine 0.3 g/d for 3 months added to original targeted drugs, 3 per group
Excerpt: FIG. 4 is a histogram of contrast experiment data showing that berberine reduces the mean pulmonary arterial pressure. […] Every three data columns in the figure are a group, and are a normal group, a blank group, and a berberine group from left to right in sequence.
Six patients with idiopathic pulmonary hypertension were divided into two groups (3 in each group): a control group (administered with targeted drugs according to the original doses) and a berberine group (based on the original targeted drugs, additionally administered with berberine at 0.3 g/d for a total of 3 months).

in-stent restenosis = test: In-stent restenosis in patients with drug-eluting stent implantation; type: in vivo, human
Procedure: FIG. 5 is an experimental control diagram of berberine in the prevention and treatment of in-stent restenosis.
100 patients with drug-eluting stent implantation were randomly divided into two groups: a control group (without additional berberine) and a berberine group (additionally administered with berberine at 0.3 g/d since the 3th month after surgery for a total of 6 months), and coronary angiography was performed again at the 12th month after surgery.

[4] = test system: myocardial infarction model; test: Myocardial infarction animal model; type: in vivo
Excerpt: FIG. 6 is an experimental result diagram showing berberine for prevention and treatment of ischemic cardiomyopathy.
30 animals in the myocardial infarction model were randomly divided into a control group and a berberine group by intragastric gavage.

[5] = test system: acute myocardial infarction; test: Cardiac failure in patients with acute myocardial infarction / ischemic cardiomyopathy; type: in vivo, human
Excerpt: 40 patients with acute myocardial infarction were randomly divided into a control group and a berberine group (0.3 g, three times a day, three months later). The mean left ventricular ejection fraction of the control group is 41%, while the mean left ventricular ejection fraction of the berberine group is increased to 53% (p=0.037).

[6] = cited from earlier work
[7] = beagles, intragastric gavage 0.1 g/d for 14 days before dehydrogenated monocrotaline 60 mg/kg, retested after 8 weeks, 9 of 10 animals

Q: For `COc1ccc2cc3[n+](cc2c1OC)CCc1cc2c(cc1-3)OCO2` [berberine], which “Grk2 and LKB1 after noradrenaline stimulation” value [1] is on record?
A: Its value is “significant decrease”.

Q: What about the “proliferation degree of pulmonary arterial smooth muscle / pathological remodeling of pulmonary vasculature” value ([2]; 8 control animals with mean pulmonary arterial pressure >25 mmHg, then berberine intragastric gavage 0.1 g/d for 42 days, at 14 weeks, FIG. 2) of the same molecule?
A: Its value is “significantly reduced”.

Q: What about the “mean pulmonary arterial pressure, one animal of the berberine group” value ([2]; beagles, intragastric gavage 0.1 g/d for 14 days before dehydrogenated monocrotaline 60 mg/kg, retested after 8 weeks, 1 of 10 animals) of the same molecule?
A: The value was 28 mmHg.

Q: And the “mean pulmonary arterial pressures, other 9 animals of the berberine group (bound)” value [2, 7]?
A: Its value is < 25 mmHg.

Q: What about the “mean pulmonary arterial pressures, other 9 animals of the berberine group (mean ± spread)” value [2, 7] of the same molecule?
A: Its value is 19±3.0 mmHg.

Q: And the “right ventricular function (right ventricular systolic displacement amplitude, TAPSE)” value ([3]; FIG. 3)?
A: The value was “significantly improved”.

Q: And the “mean pulmonary arterial pressure” value ([3]; FIG. 4)?
A: The value was “significantly reduced”.

Q: And the “stenosis degree in patients with restenosis treated afterwards” value (in-stent restenosis; 7 control patients with restenosis, oral berberine 0.3 g/d for 6 months, followed up 9 months, result in 6 patients, FIG. 5)?
A: The value was “significantly reduced”.

Q: What about the “proportion of in-stent restenosis” value (in-stent restenosis; berberine 0.3 g/d from 3rd month after surgery for 6 months, coronary angiography at 12th month, control 14%, p=0.035) of the same molecule?
A: The value was 4%.

Q: And the “number of cases showing restenosis” value (in-stent restenosis; berberine 0.3 g/d from 3rd month after surgery for 6 months, coronary angiography at 12th month, control N=7)?
A: Its value is 2 cases.

Q: What about the “in-stent restenosis on coronary angiography, single patient” value (in-stent restenosis; patient with severe in-stent restenosis, continuous berberine treatment for 6 months, FIG. 5) of the same molecule?
A: Its value is “substantially disappears”.

Q: What about the degree of stenosis (in-stent restenosis; restenosis cases of berberine group, 12th month after surgery, control 76.3±9%, p=0.029) of the same molecule?
A: The degree of stenosis was 58±4%.

Q: What about the arrangement of cardiomyocytes ([4]; berberine treatment group) of the same molecule?
A: The arrangement of cardiomyocytes was “arranged intactly”.

Q: And the “apoptotic bodies (electron microscopy)” value ([4]; intragastric gavage, 0.3 g three times a day, three months later, FIG. 6 right A-C)?
A: The value was “decrease”.

Q: And the “apoptosis of myocardial cells” value ([4]; intragastric gavage, 0.3 g three times a day, three months later, fluorescent staining, FIG. 6 left)?
A: Its value is “significantly reduces”.

Q: What about the “cardiac cavity, single patient” value ([5]; one patient with acute anterior myocardial infarction, berberine treatment for 3 months, FIG. 7) of the same molecule?
A: The value was “reduced”.

Q: What about the “ejection fraction, single patient” value ([5]; one patient, day 22 after myocardial infarction, then berberine for 3 months, ultrasonic cardiography, FIG. 7) of the same molecule?
A: Its value is “significantly increased; also recorded: significant increased”.

Q: What about the “myocardial contractility / systolic function, single patient” value ([5]; one patient, berberine for 3 months, FIG. 7) of the same molecule?
A: Its value is “improved; also recorded: significantly enhanced”.

Q: What about the “mean left ventricular ejection fraction” value ([5]; patients with acute myocardial infarction, 0.3 g three times a day, three months later, control 41%, p=0.037) of the same molecule?
A: The value was 53%.

Q: What about the “solubility in benzene, diethyl ether, and chloroform” value ([6]; benzene, diethyl ether, chloroform) of the same molecule?
A: Its value is “insoluble”.

Q: What about the “solubility in water” value ([6]; water) of the same molecule?
A: Its value is “soluble”.
